This note sets out measurements from patent US7863242B2, “Compositions for down-regulation of CCR5 expression and methods of use thereof” (priority 2003, dated 2011).

One assay deals with HIV-1 ADA. As to the kind of experiment: microbe, parasite or virus in culture. Conditions: Human immunodeficiency virus 1, PBMC, 168 h. The procedure: (§1) Infectivity Assays: The following viruses were used in infection experiments: HIV-1 IIIb, HIV-1 ADA, HIV-1 BaL, HIV-1 JRFL, HIV-1 JRCSF, and HIV-1 SF162. HIV-1 IIIb is a T cell line-adapted lab strain that uses CXCR4 for entry into cells, whereas the rest are isolates that use CCR5. Viruses were obtained from the National Institutes of Health AIDS Research and Reference Reagent Program.
(§2) For infection of PBMCs, fresh donor PBMCs were cultured for 7 days in medium containing IL-2. On day 7, cells were exposed to the virus for 3 h. Nonadsorbed virus was removed by washing cells with PBS three times. Infected cells were cultured in IL-2 medium. Infection of MDMs was carried out as described before (Perno, 1993). Unless otherwise indicated, PBMCs were infected by using an moi of 0.001, and MDM were infected by using an moi of 0.002. Virus growth was monitored in culture supernatants by measuring p24 antigen levels by ELISA (NEN) or by measuring viral RT activity in an RT assay (Willey, 1988).
Antiviral Activity of RAPA in PBMCs: The antiviral activity of RAPA was assayed in PBMCs that had been cultured in the presence of RAPA for 7 days before infection. Cells were infected with the X4 HIV-1 IIIb and the R5 HIV-1 ADA strains. Infected cells were cultured in the presence of RAPA (same concentration as during pretreatment) for 7 additional days, during which time virus replication and cell viability were measured.
To test this hypothesis, donor PBMCs were cultured in IL-2 medium in the absence or presence of RAPA (1, 10, and 100 nM). […] Infected cells were cultured in the presence of RAPA (same concentration as during pretreatment) plus 0.1 nM TAK-779. Virus production was determined 7 days after infection.
Donor PBMCs were cultured in IL-2 medium in the absence or presence of HU (0 and 10 uM). After 7 days, cells were infected with HIV-1 ADA. Infected cells were cultured in the presence of HU (same concentration as during pretreatment) plus different concentration of TAK-779 ranging from 0, 2 and 20 nM). Virus production was determined 7 days after infection.
In order to determine the nature and degree of interaction between RAPA and T20, infectivity assays were performed in the presence of the drugs, alone and in combination. The infectivity assays were performed using PBMCs from healthy donors. PBMCs were cultured for 7 days in the presence of IL-2 (100 U/ml) in the presence or absence of RAPA. On day 7, cells were infected by exposure to the R5 strain HIV-1 ADA (m.o.i of 0.001) for 2 h. Non-adsorbed virus was removed by 3 washes with PBS. Infected cells were then plated in RPMI-10 supplemented with IL-2 (100 U/ml) in the presence of different concentrations of RAPA and T20. Each drug concentration was tested in triplicate. Medium was changed in day 3 after infection and drugs were added at the same concentration as before. On day 7 after infection, virus production was measured in the culture supernatants using a commercial p24 antigen ELISA (NCI, Frederick). Cell viability was determined using the MTT assay (Roche).
The antiviral data was then analyzed for synergy using two different methodologies, the Median Effect principle and Three Dimensional modeling.

A further assay has as its system R5 strains of HIV-1. The experiment in a line: Replication of a panel of five R5 strains of HIV-1 in PBMCs. The format is cell-based. Conditions: Human immunodeficiency virus 1, PBMC. The procedure:
as §1, §2
RAPA at 0.01 nM inhibited R5 HIV-1 by 10-64% depending on the strains, whereas 0.1 nM RAPA inhibited virus replication by 15-85%. At 1 nM RAPA, all R5 viruses were inhibited by ≧90%.

The subject of the next assay is HIV-1 IIIb. As to the kind of experiment: HIV-1 IIIb replication in PBMCs (p24 assay). To be noted: Human immunodeficiency virus 1, IIIB, PBMC, 7 days pretreatment, day 7 after infection. The format is cell-based. The procedure: as §1, §2
Antiviral Activity of RAPA in PBMCs: The antiviral activity of RAPA was assayed in PBMCs that had been cultured in the presence of RAPA for 7 days before infection. […] Infected cells were cultured in the presence of RAPA (same concentration as during pretreatment) for 7 additional days, during which time virus replication and cell viability were measured.

The mark [1] stands for this setting: read-out: Fa (fractional inhibition).

In general, IC50 refers to the concentration that inhibits the measured activity by half. A word on the inhibition: it is the relative decrease from the control value, in per cent. `CO[C@H]1C[C@@H]2CC[C@@H](C)[C@@](O)(O2)C(=O)C(=O)N2CCCC[C@H]2C(=O)O[C@H]([C@H](C)C[C@@H]2CC[C@@H](O)[C@H](OC)C2)CC(=O)[C@H](C)/C=C(\C)[C@@H](O)[C@@H](OC)C(=O)[C@H](C)C[C@H](C)/C=C/C=C/C=C/1C` [RAPA, rapamycin]: the IC50 in the assay with HIV-1 ADA (read-out: Dm (dose at 50% inhibition, equivalent to IC50 value)) was 0.31 nM. In the assay with HIV-1 ADA (setting [1]), the inhibition at 30 pM turned out to be 1.7%, the inhibition at 60 pM came to 10.2%, the inhibition at 0.00012 µM stood at 11.4% and the inhibition at 0.00025 µM amounted to 54%. Moreover, in the assay on HIV-1 ADA (setting [1]), the inhibition at 0.0005 µM was 62% and the inhibition at 0.001 µM stood at 88%. Further, the inhibition at 10 pM with R5 strains of HIV-1 (read-out: inhibition of R5 HIV-1, depending on the strains) lay within 10 to 64%. The inhibition at 0.0001 µM in the assay with R5 strains of HIV-1 (read-out: inhibition of R5 HIV-1 replication) was 15 to 85%. In addition, in the assay with R5 strains of HIV-1 (read-out: inhibition of all R5 viruses), the inhibition at 0.001 µM is at least 90%. For the same molecule, the inhibition at 0.01 µM in the assay on HIV-1 IIIb (10 nM RAPA) is 13.5%. Further, in the assay with HIV-1 IIIb (100 nM RAPA), the inhibition at 0.1 µM amounted to 32%.
